Columns and labels:
hearing in rats = assay: Auditory Evoked Brainstem Response (ABR), permanent threshold shift after cisplatin; type: in vivo, rat; conditions: cisplatin 16 mg/kg plus Ebselen 16 mg/kg i.p., compared to cisplatin without Ebselen, 72 hours (FIG. 8)
Method: (§1) Auditory Evoked Brainstem Response (ABR) was used to assess hearing in rats before and after exposure to cisplatin and chemoprotectants. Ebselen or DMSO (control vehicle) were introduced intraperitoneally into rats one hour before intraperitoneal administration of cisplatin at a dosage of 16 mg/kg body weight. Seventy two hours after delivery of cisplatin, ABR data were collected, animals were sacrificed, cochleae were collected, dissected, stained with FITC-phalloidin (to detect F-Actin in hair cells), and DAPI (to detect nuclear DNA).

[1] = tested on: cochlear outer hair cells; assay: Count of outer auditory hair cells in excised cochleae after cisplatin; type: in vivo, rat; conditions: rats, cisplatin plus Ebselen compared to cisplatin without Ebselen (FIG. 10A, 10B)
Method: as §1
Additionally, cochleae were excised from rats treated with the combination of cisplatin and Ebselen as described in this Example. Cochleae were also excised from rats treated with cisplatin and saline and DMSO (control). The number of outer auditory hair cells in the excised cochlea were counted at intervals of 0.1 mm along the cochlea. Representative results from a control rat and a treated rat are shown in FIG. 10A and FIG. 10B, respectively.

inner ear hair cells = assay: Cochlea explant culture, inner ear hair cell count after cisplatin; type: cell-based, mouse; conditions: 43 μM cisplatin plus 47 μM Ebselen, 24 hours (FIG. 7)
Method: Three cochlea per treatment, obtained from P3-4 mouse pups, were cultured in 0.4 micrometer MilliCell-CM inserts with NeuroBasal A medium plus B27 supplement. After 24 hours in culture Ebselen was added to the medium, incubated for ten minutes, and then cisplatin was added to the medium at a final concentration of 43 μM. A first control treatment included 43 μM cisplatin. A second control treatment included 47 μM Ebselen without the addition of cisplatin. All cultures were incubated for 24 hours at 37° C. in 5% carbon dioxide.
The explants were then harvested, fixed, and stained with calbindin (which detects hair cells) and DAPI (4′,6-Diamindino-2-phenylindole; for detection of nuclear DNA).

[2] = tested on: NuTu-19 ovarian cancer cells; assay: MTS cell viability assay of cultured NuTu-19 cells; type: cell-based; conditions: for inhibition of the ability of cisplatin to kill NuTu-19 ovarian cancer tumor cells in culture: single chemoprotectant plus cisplatin 43 μM (FIG. 2-4)
Method: NuTu-19 cells were plated at a density of 3,000 cells per well in 96 well culture dishes, and incubated at 37° C., in the presence of 5% carbon dioxide, for 24 hours. N-acetylcysteine, Ebselen or allopurinol were incubated for one hour, or for four hours, with the NuTu-19 cells, then cisplatin was added to the cultures which were further incubated at 37° C., in the presence of 5% carbon dioxide, for 24 hours. The NuTu-19 cells were then rinsed with media and incubated in […] cisplatin for an additional 24 hours.
The NuTu-19 cells were then rinsed twice with phosphate buffered saline (PBS), then MTS assays were performed to measure the number of living cells. MTS is an abbreviation for (3-(4,5-dimethylthiazol-2-yl)-5-(3-carboxymethoxyphenyl)-2-(4-sulfophenyl)-2H-tetrazolium. The MTS assay is a colorimetric method for determining the number of viable cells based upon physiologic catabolism of MTS to a formazan product that is soluble in tissue culture medium. The absorbance of the formazan product at 490 nm can be measured directly from a 96 well plate using a plate reader. Increased absorbance at 490 nm correlates with increased production of formazan in a well. This is typically due to more viable cells present in a well.

| Compound | permanent threshold shift (PTS) in hearing at 8, 16, 24 and 32 kHz (hearing in rats) | percentage of outer hair cells missing in cochleae [1] | number of inner ear hair cells (protection from damage by cisplatin in vitro) (inner ear hair cells) | inhibition of the ability of cisplatin to kill NuTu-19 ovarian cancer tumor cells in culture [2] | percentage of live, cultured NuTu-19 ovarian cancer cells ([2]; incubation for 24 hours in the presence of cisplatin (FIG. 1)) |
| --- | --- | --- | --- | --- | --- |
| O=c1c2ccccc2[se]n1-c1ccccc1 [Ebselen, 2-phenyl-1,2-benzoisoselenazol-3(2H)-one] | less | less | protects | does not inhibit |  |
| Oc1ncnc2[nH]ncc12 [allopurinol, 4-hydroxypyrazolo[3,4-d]pyrimidine] |  |  |  | does not inhibit |  |
| CC(=O)N[C@@H](CS)C(=O)O [N-acetylcysteine, N-acetyl-L-Cysteine] |  |  |  | does not inhibit |  |
| N.N.[Cl][Pt][Cl] [cisplatin, cis-diamminedichloroplatinum] |  |  |  |  | killed |
